This note sets out measurements from ChEMBL document CHEMBL3860063, “New potently bioactive alkaloids from Crinum erubescens” (Bioorg Med Chem, 2016).

Molecules are shown by their SMILES.

One test relates to Plasmodium falciparum. Nature of the test: Antiplasmodial activity against chloroquine/mefloquine-resistant Plasmodium falciparum Dd2 measured after 72 hrs by SYBR Green1-based fluorescence assay. The test is classed as functional. Particulars: Dd2, 72 h.
The nature of test [1]: Antiproliferative activity against human A2780 cells measured after 2 days by AlamarBlue assay. It is filed as functional, cell-based. As to conditions: A2780, 48 h.

The term IC50 denotes the concentration needed to halve the response being measured. Read a high IC50 as a need for much substance. Consider `CO[C@@H]1[C@@H](OC)[C@H](O[C@@H]2CC(=O)[C@@H]3CCN(Cc4cc5c(cc43)OCO5)C(=O)[C@H]2O)O[C@H](CO)[C@H]1OC`, for which the figures for the IC50 (with Plasmodium falciparum; in test [1]) were 180 nM and 16.4 nM, respectively. `CO[C@@H]1[C@@H](OC)[C@H](O[C@@H]2CC(=O)[C@@H]3CCN(Cc4cc5c(cc43)OCO5)C(=O)[C@H]2O)O[C@H](C)[C@H]1OC`: the values for the IC50 (in the test with Plasmodium falciparum; in test [1]) were 260 nM and 28 nM, respectively. For the compound `CO[C@H]1[C@@H]2OCOCO[C@H]2[C@H](O[C@@H]2CC(=O)[C@@H]3CCN(Cc4cc5c(cc43)OCO5)C(=O)[C@H]2O)O[C@@H]1C`, the values for the IC50 (with Plasmodium falciparum; in test [1]) were 26 nM and 25 nM, respectively.

For `CO[C@H]1[C@@H]2OCOCO[C@H]2[C@H](O[C@@H]2CC(=O)[C@@H]3CCN(Cc4cc5c(cc43)OCO5)C(=O)[C@H]2O)O[C@@H]1CO`, the values for the half-inhibitory concentration (IC50) (with Plasmodium falciparum; in test [1]) were 30 nM and 11.1 nM, respectively. Regarding `C[C@@H]1CC[C@H]2[C@@H](C)C(=O)O[C@@H]3O[C@@]4(C)CC[C@@H]1[C@]32OO4` [ARTEMISININ], in the test on Plasmodium falciparum, half-maximal inhibition (IC50) required 6 nM.
